Data taken from US8889902B2, “Acetylsalicylic acid salts” (priority 2009, dated 2014).

How the values were obtained:
CRP = CRP levels in blood, carrageneen inflammation model; format: in vivo, rats; conditions: 100 mg/kg
Procedure: To evaluate the intensity of the inflammation process the CRP levels were determined by standard method on analyzer ? INTEGRA 400+ ? at the end of experiment (5 hours after injection of carrageneen).

tail bleeding = assay: Tail bleeding time during thrombosis experiment; format: in vivo, rats; conditions: 25 mg/kg p.o., single dose; for Tail bleeding time, %: control = 100
Procedure: Additionally during the thrombosis experiment rat tail bleeding time was measured. The tail was transected 5 mm from the tip with scalpel and the tail was immediately immersed into 37° C. warm isotonic saline until termination of bleeding was noted. Termination of bleeding was defined as the time of complete stop of bleeding with no recurrence of bleeding within the next 30 s.

[1] = tested on: hyperthermia induced by intramuscular injection of pyrogenal; assay: Antipyretic activity, pyrogenal hyperthermia (curative mode); format: in vivo, rats; conditions: 100 mg/kg p.o. 2 h after pyrogenal
Procedure: The antipyretic effect of test substances in therapeutic (curative) mode was investigated on 48 rats with body mass 182-205 g, with hyperthermia induction by injecting pyrogenal in dose 100 μg (Shwarz G Y, Syubaev R D, Vedomosti NCEG lekarstvennyh sredstv MZ RF 2000; 1:44-50 (Rus). Test substances were given p.o. 2 hours after injection of pyrogenal immediately after the recording of elevated body temperature. Rectal temperature was measured by electric thermometer TERMO before the i.m. injection of pyrogenal (baseline temperature), at the peak of hyperthermia (pyrogenal control) and 30 min. after treatment with test substance, i.e., 2½ hours after the injection of pyrogenal. Ambient temperature in laboratory was kept at 20-22° C.

[2] = tested on: abdominal constrictions in writhing test model; assay: Mouse writhing test (acetic acid i.p.); format: in vivo, mice
Procedure: In investigating the analgesic, anti-inflammatory and antipyretic effects of MASA methods widely used in evaluation of NSAIDs were employed. Mongrel white laboratory mice and Wistar rats were used in experiments. Animals were kept in groups of 7-8 in adequate cages in climatized rooms at 22±1° C., relative humidity 60±5% and 12/12-hour light/darkness cycle with free access to feed and water.
Aqueous solutions of test substances were prepared ex tempore. In each experimental series a control group was used that received an identical volume of water p.o.
Nociceptive reaction was evaluated by chemical irritation method—writhing test (Charaborty A et al, Indian J of Pharmacology 2004; 36(3):148-150). Animals received i.p. 0.25 ml of 0.75% aqueous acetic acid solution: After the injection animals were placed separately in special boxes and observed for 10 minutes. The number of abdominal constrictions was registered. Analgesic activity was manifested by reduction of the number of abdominal constrictions in the 10 minutes period. Test substances were introduced 30 min before the irritating agent. The level of analgesia was expressed as analgesic index calculated as follows: A=(Cc−Ct)/Cc·100%, where A—Analgesic index Cc—number of contractions in control group, Ct—number of contractions in the test group.

carrageneen paw oedema = assay: Carrageneen oedema, preventive mode; format: in vivo, rats; conditions: 100 mg/kg p.o., preventive 6 times; 4 h
Procedure: The […] oedema was investigated by established method ([…], Patol Fiziol Eksp Ter, 2002(2):24-7 (Rus) on 42 rats with body mass of 178-220 g: […] The prevention index was calculated as indicated in previous section.

[3] = tested on: FeCl3 induced carotid artery thrombosis; assay: FeCl3 induced carotid artery thrombosis, time till occlusion; format: in vivo, Wistar rats; conditions: 25 mg/kg p.o.; for Time till occlusion: single dose 2 h before; for Time till occlusion, %: single dose, control = 100
Description: We chose an experimental thrombosis model based on rat arterial thrombosis induced by FeCl3 (Kurz K et al, Thromb Res 1990, 60:269-280. Wang X, Xu L, Thromb Res 2005,115:95-100). Tissue damage initiated by iron-mediated chemical oxidation predisposes the injured area to platelet adherence and aggregation followed by coagulation activation and fibrin deposition. Male Wistar rats with mass 350-420 g were used in experiments. Animals were kept in groups of 7-8 in adequate cages in climatized room at 22±1° C., relative humidity 60±5% and 12/12-hour light/darkness cycle with free access to feed and water. All experiments were carried out in accordance with the European Community Council's Directive of 24 Nov. 1986 (86/609/EEC) relative to experimental animal care. All efforts were made to minimize animal suffering and to reduce the number of animals used. Rats were randomly divided into various experimental groups, each consisting of not less than seven animals. The vehicle or test compound MD (25 mg/kg), NA (25 mg/kg), MASA (10 mg/kg), ASA (5 mg/kg) and combination MD+NA (25+25 mg/kg), MASA+NA (10+25 mg/kg) and ASA+NA (5+25 mg/kg) was administered by oral route 2 h before the initiation of thrombosis. Parallel experiments were conducted to compare the effects of a single dose of test substance (given 2 h before the initiation of thrombosis) and repeated doses (once daily for 3 days). […] Rats were anaesthetized with pentobarbital sodium (50 mg/kg, i.p. and 10 mg/kg/h) and were placed on a heat controlled operating table throughout the experiment to maintain a body temperature of 37° C. One of the carotid arteries was exposed by cervical incision, separated from the adherent tissue, vagus nerve, and a flow probe (electromagnetic blood flow meter MFV 1200, Nicon Kohden, Japan) was placed on the exposed segment of common carotid artery to record the blood flow. After a stabilization period of 15 min, thrombosis was induced by topically applying (in contact with the adventitial surface of vessel) two pieces (2×1 mm) of Whatman filter paper, soaked in 15% solution of FeCl3. Thrombosis time of carotid artery was recorded as time taken for the complete cessation of the blood flow and has been reported as time till occlusion (TTO).

[4] = tested on: serum lipid levels (C, HDL, LDL, TG); assay: Acute hyperlipidemia model (Triton WR1339); format: in vivo, Wistar rats; conditions: TR 250 mg/kg, serum 24 h
Procedure: Male Wistar rats with body mass of 250-270 g were used. Animals were held in groups of 6-8 in climatized rooms at 22±1° C., relative humidity 60±5%, and 12/12-hour light/dark cycle with free access to water and feed. […] The solution of test substances or water was introduced to control and TR group animals p.o. one hour before and 20 hours after the introduction of TR as described below.
Blood for biochemical analysis was collected on the next day (24 hours after the injection of TR) by heart punction under ether narcosis. Serum was separated by centrifugation and analyzed for total cholesterol, HDL, LDL and TG levels by commercial kits.

| Structure (SMILES) | CRP (CRP; 5 h after carrageneen) [mg/L] | CRP increase % (CRP; carrageneen control = 100) [%] | Tail bleeding time (tail bleeding) [min] | Tail bleeding time, % (tail bleeding) [%] | Rectal temperature at 30 minutes after treatment [1] [°C] | Analgesic index ([2]; 100 mg/kg p.o.) | Animals with positive reaction/total number ([2]; 100 mg/kg p.o. 30 min before acetic acid) | No. of constrictions ([2]; 100 mg/kg p.o., 10 min observation) | Reduction in % (oedema) (carrageneen paw oedema) [%] | Volume of paw after injection of carrageneen (carrageneen paw oedema) [mL] | Time till occlusion [3] [min] | Time till occlusion, % [3] [%] | C ([4]; 150 mg/kg p.o.) [mg/dL] | HDL ([4]; 150 mg/kg p.o.) [mg/dL] | LDL ([4]; 150 mg/kg p.o.) [mg/dL] | TG ([4]; 150 mg/kg p.o.) [mg/dL] | C ([4]; 50 mg/kg p.o.) [mg/dL] | HDL ([4]; 50 mg/kg p.o.) [mg/dL] | LDL ([4]; 50 mg/kg p.o.) [mg/dL] | TG ([4]; 50 mg/kg p.o.) [mg/dL] |
| --- | --- | --- | --- | --- | --- | --- | --- | --- | --- | --- | --- | --- | --- | --- | --- | --- | --- | --- | --- | --- |
| C[N+](C)(C)NCCC(=O)[O-].O.O [MD, 3-(Trimethylammonioamino)propanoate dihydrate] | 0.22 ± 0.014 | 83 | 10.5 ± 1.01 | 118 | 37.10 ± 0.14 | −0.4 | 8/8 | 22.10 ± 1.47 | 34 | 1.66 ± 0.10 | 29.8 ± 2.29 | 122 | 345.6 ± 34.1 | 63.8 ± 9.3 | 273.9 ± 31.6 | 1022 ± 80.7 |  |  |  |  |
| O=C(O)c1cccnc1 [NA, nicotinic acid] |  |  | 11.5 ± 1.39 | 129 |  |  |  |  |  |  | 30.3 ± 3.12 | 124 |  |  |  |  | 327.5 ± 38.4 | 66.5 ± 14.6 | 246.3 ± 32.5 | 591 ± 43.3 |
